Patent US10045978B2 (AB SCIENCE, priority 2010, dated 2018)

Test system: patients with indolent forms of mastocytosis with handicap, D816V absent in at least one infiltrated organ
Experiment: Example 1 phase 2a study, response assessment
Format: in vivo, human
Set-up: Hamilton rating Δ Mean ± SD / QLQ-C30 Symptom Δ Mean ± SD / QLQ-C30 Global Health Δ Mean ± SD / AFIRMM Δ Mean ± SD / Hamilton rating ΔMean ± SD / QLQC30 Symptom ΔMean ± SD / QLQC30 Global Health ΔMean ± SD / AFIRMM ΔMean ± SD: scale not given here
Settings: for AFIRMM ΔMean ± SD / Flushes per day ΔMean ± SD / Hamilton rating ΔMean ± SD / Micturitions per day ΔMean ± SD / OPA Score Change: (2, 3, 4) to (0, 1) / OPA Score No change / Pruritus ΔMean ± SD / QLQC30 Functional ΔMean ± SD / QLQC30 Global Health ΔMean ± SD / QLQC30 Symptom ΔMean ± SD / Stools per day ΔMean ± SD: extension-phase cohort
Procedure: Eligible patients were aged >18 years, had previously documented indolent systemic, smoldering systemic or cutaneous mastocytosis as per the WHO classification with associated disability as the result of mast cell released mediators and had not responded to usual symptomatic treatments for more the 6 months. […] A single occurrence of this criterion was deemed sufficient for inclusion and so no systematic examination of multiple organs was carried out specifically for this study.
Patients were classified as having a handicap if after appropriate symptomatic treatments they fulfilled at least one of the following a priori criteria: number of flushes/day ≥1; pruritus score ≥6; number of stools ≥4/day; micturition frequency ≥8/day; Hamilton rating for depression ≥10; or EORTC quality-of-life questionnaire (QLQ-C30) symptom score, functional score, and global health status of >0. Patients were excluded if they experienced inadequate organ function defined via blood test levels, or an Eastern Cooperative Oncology Group performance status >2. Other exclusion criteria included: life expectancy <6 months, severe or uncontrolled medical disease, and patients who were pregnant or nursing.
In accordance to the AFIRMM study (Hermine O, et al., 2008, PLoS ONE. 3:e2266), evaluation of treatment response was based upon the change of clinical symptoms associated with a patient's handicaps at week 12 (W12) relative to baseline. Primary endpoints were daily frequency of flushes; pruritus score; and Hamilton rating for depression, as well as, daily stool and micturition frequencies; QLQ-C30 global health status, functional, and symptom scores. […] For those patients entering the extension phase, assessments were performed every 4 weeks for the first 3 months of extension, and every 12 weeks thereafter. Secondary endpoints included the W12 assessment of AFIRMM score (a validated questionnaire assessing the self-perceived severity of mastocytosis) (Hermine O, et al., 2008, PLoS ONE. 3:e2266); overall patient assessment (OPA) score; tryptase levels; and change in organ mast cell infiltration. Determination of D816V mutation and serum tryptase levels was conducted following procedures described previously (Hermine O, et al., 2008, PLoS ONE. 3:e2266). Overall clinical response analysis at W12 defined a responder as having an improvement of ≥50% in baseline handicap of a key response endpoint (Hamilton rating, flushes, or pruritus) without deterioration or emergence of handicap. Any patient with deterioration of ≥50% in any handicap, and/or with emergence of a new handicap with an increase of ≥50% from baseline was considered as worsening. Any patient who discontinued the study before W12 was considered a non responder. Discrimination between dose regimens was investigated by analyses of the ‘time to first response’, according to the initial dosage, and ‘dose at time of first response’ in key response endpoints.
Response analysis was performed on subgroups of the ITT population according to a patient's handicap at baseline and for whom response was evaluated at W12; referred to hereafter as the handicap-related population. No data imputation was implemented. The per protocol (PP) population was defined as a subset of a given handicap-related population, which in addition had presented no major protocol deviations. Summary response data are presented using descriptive statistics with mean improvement compared to baseline in each handicap cohort, regardless of disease classification. The appropriate Wilcoxon or Fisher tests were used for group comparison of baseline disease, demographic characteristics between dose level groups and response relative to baseline. Subpopulation analysis was also conducted according to initial c-Kit status.

Q: With Cc1ccc(NC(=O)c2ccc(CN3CCN(C)CC3)cc2)cc1Nc1nc(-c2cccnc2)cs1 [masitinib, 4-(4-methylpiperazin-1-ylmethyl)-N-[4-methyl-3-(4-pyridin-3ylthiazol-2-ylamino)phenyl]benzamide] as the compound, how does the “first response events: AFIRMM score” value (at 6.0 mg/kg/day) read?
A: Its value is 5.

Q: And the “first response events: Cumulative Frequency” value (at 6.0 mg/kg/day)?
A: The value was 96%.

Q: What about the “first response events: Flush” value (at 6.0 mg/kg/day) of the same compound?
A: Its value is 4.

Q: What about the “first response events: Hamilton” value (at 6.0 mg/kg/day) of the same compound?
A: Its value is 4.

Q: And the “first response events: Micturition” value (at 6.0 mg/kg/day)?
A: The value was 1.

Q: And the “first response events: OPA score” value (at 6.0 mg/kg/day)?
A: The value was 4.

Q: What about the “first response events: Pruritus” value (at 6.0 mg/kg/day) of the same compound?
A: Its value is 4.

Q: And the “first response events: QLQ30 Functional” value (at 6.0 mg/kg/day)?
A: The value was 1.

Q: What about the “first response events: QLQ30 Global” value (at 6.0 mg/kg/day) of the same compound?
A: The value was 2.

Q: What about the “first response events: QLQ30 Symptom” value (at 6.0 mg/kg/day) of the same compound?
A: Its value is 1.

Q: What about the “first response events: Stool” value (at 6.0 mg/kg/day) of the same compound?
A: Its value is 2.

Q: What about the “first response events: Total events” value (at 6.0 mg/kg/day) of the same compound?
A: The value was 28.

Q: And the “first response events: Cumulative Frequency” value (at 7.5 mg/kg/day)?
A: The value was 100%.

Q: And the “first response events: Flush” value (at 7.5 mg/kg/day)?
A: Its value is 1.

Q: What about the “first response events: OPA score” value (at 7.5 mg/kg/day) of the same compound?
A: Its value is 1.

Q: What about the “first response events: QLQ30 Symptom” value (at 7.5 mg/kg/day) of the same compound?
A: Its value is 1.

Q: And the “first response events: Total events” value (at 7.5 mg/kg/day)?
A: Its value is 3.

Q: And the “AFIRMM ΔMean ± SD” value (W4)?
A: The value was −44.5 ± 51.6.

Q: What about the “Flushes per day ΔMean ± SD” value (W4) of the same compound?
A: Its value is −1.1 ± 1.8.

Q: What about the “Hamilton rating ΔMean ± SD” value (W4) of the same compound?
A: Its value is −5.9 ± 3.2.

Q: What about the “Micturitions per day ΔMean ± SD” value (W4) of the same compound?
A: Its value is −2.5 ± 3.3.

Q: What about the “OPA Score Change: (2, 3, 4) to (0, 1)” value (W4) of the same compound?
A: The value was 3 (18%).

Q: And the “OPA Score No change” value (W4)?
A: The value was 14 (82%).

Q: And the “Pruritus ΔMean ± SD” value (W4)?
A: Its value is −2.8 ± 3.7.

Q: What about the “QLQC30 Functional ΔMean ± SD” value (W4) of the same compound?
A: Its value is 8.7 ± 18.2.

Q: What about the “QLQC30 Global Health ΔMean ± SD” value (W4) of the same compound?
A: The value was 8.3 ± 25.5.

Q: And the “QLQC30 Symptom ΔMean ± SD” value (W4)?
A: The value was −4.1 ± 7.8.

Q: And the “Stools per day ΔMean ± SD” value (W4)?
A: Its value is −4.3 ± 2.6.

Q: And the “AFIRMM ΔMean ± SD” value (W12)?
A: The value was −61.9 ± 45.9.

Q: What about the “Flushes per day ΔMean ± SD” value (W12) of the same compound?
A: Its value is −1.6 ± 1.5.

Q: And the “Hamilton rating ΔMean ± SD” value (W12)?
A: The value was −4.6 ± 4.9.

Q: And the “Micturitions per day ΔMean ± SD” value (W12)?
A: The value was −5.4 ± 2.6.

Q: And the “OPA Score Change: (2, 3, 4) to (0, 1)” value (W12)?
A: Its value is 3 (20%).

Q: And the “OPA Score No change” value (W12)?
A: The value was 16 (80%).

Q: What about the “Pruritus ΔMean ± SD” value (W12) of the same compound?
A: The value was −3.3 ± 3.0.

Q: What about the “QLQC30 Functional ΔMean ± SD” value (W12) of the same compound?
A: The value was 11.6 ± 16.4.

Q: And the “QLQC30 Global Health ΔMean ± SD” value (W12)?
A: The value was 16.1 ± 26.4.

Q: What about the “QLQC30 Symptom ΔMean ± SD” value (W12) of the same compound?
A: Its value is −7.0 ± 15.2.

Q: What about the “Stools per day ΔMean ± SD” value (W12) of the same compound?
A: Its value is −4.2 ± 3.0.

Q: And the “AFIRMM ΔMean ± SD” value (W24)?
A: The value was −66.0 ± 29.9.

Q: What about the “Flushes per day ΔMean ± SD” value (W24) of the same compound?
A: Its value is −1.9 ± 3.1.

Q: And the “Hamilton rating ΔMean ± SD” value (W24)?
A: Its value is −2.8 ± 9.2.

Q: And the “Micturitions per day ΔMean ± SD” value (W24)?
A: The value was −4.3 ± 5.9.

Q: What about the “OPA Score Change: (2, 3, 4) to (0, 1)” value (W24) of the same compound?
A: The value was 0 (0%).

Q: What about the “OPA Score No change” value (W24) of the same compound?
A: Its value is 3 (100%).

Q: And the “Pruritus ΔMean ± SD” value (W24)?
A: The value was −5.1 ± 4.7.

Q: And the “QLQC30 Functional ΔMean ± SD” value (W24)?
A: The value was 15.3 ± 10.6.

Q: What about the “QLQC30 Global Health ΔMean ± SD” value (W24) of the same compound?
A: Its value is 18.8 ± 27.5.

Q: What about the “QLQC30 Symptom ΔMean ± SD” value (W24) of the same compound?
A: The value was −19.9 ± 8.2.

Q: And the “Stools per day ΔMean ± SD” value (W24)?
A: The value was −2.5 ± 2.1.

Q: And the “AFIRMM ΔMean ± SD” value (W36)?
A: The value was −62.4 ± 31.8.

Q: And the “Flushes per day ΔMean ± SD” value (W36)?
A: The value was −2.1 ± 3.5.

Q: What about the “Hamilton rating ΔMean ± SD” value (W36) of the same compound?
A: Its value is −10.3 ± 5.1.

Q: And the “Micturitions per day ΔMean ± SD” value (W36)?
A: The value was −6.5 ± 6.4.

Q: And the “OPA Score Change: (2, 3, 4) to (0, 1)” value (W36)?
A: Its value is 1 (20%).

Q: And the “OPA Score No change” value (W36)?
A: The value was 4 (80%).

Q: And the “Pruritus ΔMean ± SD” value (W36)?
A: The value was −6.9 ± 3.5.

Q: What about the “QLQC30 Functional ΔMean ± SD” value (W36) of the same compound?
A: Its value is 5.8 ± 16.7.

Q: What about the “QLQC30 Global Health ΔMean ± SD” value (W36) of the same compound?
A: Its value is 21.7 ± 26.1.

Q: What about the “QLQC30 Symptom ΔMean ± SD” value (W36) of the same compound?
A: Its value is −14.4 ± 6.5.

Q: And the “Stools per day ΔMean ± SD” value (W36)?
A: Its value is −0.7 ± 3.2.

Q: What about the “AFIRMM ΔMean ± SD” value (W48) of the same compound?
A: The value was −64.3 ± 48.5.

Q: What about the “Flushes per day ΔMean ± SD” value (W48) of the same compound?
A: Its value is −2.8 ± 2.9.

Q: And the “Hamilton rating ΔMean ± SD” value (W48)?
A: The value was −11.5 ± 6.4.

Q: And the “Micturitions per day ΔMean ± SD” value (W48)?
A: Its value is −7.0 ± 2.8.

Q: And the “OPA Score Change: (2, 3, 4) to (0, 1)” value (W48)?
A: The value was 2 (33%).

Q: And the “OPA Score No change” value (W48)?
A: The value was 4 (67%).

Q: And the “Pruritus ΔMean ± SD” value (W48)?
A: The value was −5.2 ± 4.4.

Q: What about the “QLQC30 Functional ΔMean ± SD” value (W48) of the same compound?
A: The value was 0.7 ± 16.7.

Q: What about the “QLQC30 Global Health ΔMean ± SD” value (W48) of the same compound?
A: The value was 12.5 ± 14.7.

Q: What about the “QLQC30 Symptom ΔMean ± SD” value (W48) of the same compound?
A: Its value is −10.3 ± 6.4.

Q: And the “Stools per day ΔMean ± SD” value (W48)?
A: The value was −2.0 ± 0.0.

Q: What about the “AFIRMM ΔMean ± SD” value (W60) of the same compound?
A: The value was −61.1 ± 32.9.

Q: And the “Flushes per day ΔMean ± SD” value (W60)?
A: The value was −2.3 ± 2.9.

Q: And the “Hamilton rating ΔMean ± SD” value (W60)?
A: The value was −8.3 ± 7.5.

Q: And the “Micturitions per day ΔMean ± SD” value (W60)?
A: The value was −6.0 ± 4.2.

Q: And the “OPA Score Change: (2, 3, 4) to (0, 1)” value (W60)?
A: Its value is 4 (44%).

Q: And the “OPA Score No change” value (W60)?
A: The value was 5 (56%).

Q: And the “Pruritus ΔMean ± SD” value (W60)?
A: The value was −4.6 ± 4.3.

Q: And the “QLQC30 Functional ΔMean ± SD” value (W60)?
A: The value was 11.6 ± 11.2.

Q: What about the “QLQC30 Global Health ΔMean ± SD” value (W60) of the same compound?
A: Its value is 23.1 ± 25.3.

Q: And the “QLQC30 Symptom ΔMean ± SD” value (W60)?
A: Its value is −12.9 ± 8.3.

Q: And the “Stools per day ΔMean ± SD” value (W60)?
A: Its value is −4.7 ± 2.9.
